Assay results from ChEMBL document CHEMBL1201862, “PubChem BioAssay data set” (2004).
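Method: 48-hour compound exposure of cells in 96-well plates, five concentrations, linear interpolation of endpoints. At the GI50, growth is halved.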 Calls of active or inactive are those of the source. Rule as the data show it: active = GI50 up to about 1.1 µM and inactive = higher.

How the values were obtained:
Test in all cases: DTP human tumour cell line panel, 48 h
[1] = test system: SF-295
[2] = test system: T47D
[3] = test system: MOLT-4
[4] = test system: A549
[5] = test system: HOP-92
[6] = test system: UACC-257
[7] = test system: OVCAR-5
[8] = test system: SN12C
[9] = test system: SF-539
[10] = test system: HL-60
[11] = test system: CCRF-CEM
[12] = test system: HCC 2998
[13] = test system: DU-145
[14] = test system: 786-0
[15] = test system: COLO 205
[16] = test system: SK-MEL-2
[17] = test system: NCI/ADR-RES
[18] = test system: NCI-H522
[19] = test system: TK-10
[20] = test system: MDA-MB-435

Row | SMILES | GI50 [1] | GI50 [2] | GI50 [3] | GI50 [4] | GI50 [5] | GI50 [6] | GI50 [7] | GI50 [8] | GI50 [9] | GI50 [10] | GI50 [11] | GI50 [12] | GI50 [13] | GI50 [14] | GI50 [15] | GI50 [16] | GI50 [17] | GI50 [18] | GI50 [19] | GI50 [20]
1 | Cc1cn(C2CC(OP(=O)(O)OCC3OC(n4c[n+]([BH2-]C#N)c5c(=O)[nH]c(N)nc54)CC3O)C(CO)O2)c(=O)[nH]c1=O (stereo unspecified) | > 100 µM (inactive) | > 100 µM (inactive) | > 100 µM (inactive) | > 100 µM (inactive) | > 100 µM (inactive) | > 100 µM (inactive) | > 100 µM (inactive) | > 100 µM (inactive) | > 100 µM (inactive) | > 100 µM (inactive) | > 100 µM (inactive) | > 100 µM (inactive) | > 100 µM (inactive) | > 100 µM (inactive) | > 100 µM (inactive) | > 100 µM (inactive) | > 100 µM (inactive) | > 100 µM (inactive) |  | 
2 | O=C(O)CCC(=O)OCN1C(=O)C2C3C=CC(C2C1=O)C1C2C(=O)N(COC(=O)CCC(=O)O)C(=O)C2C31 (stereo unspecified) | > 100 µM (inactive) |  | > 90.4 µM (inactive) | > 100 µM (inactive) | > 100 µM (inactive) | > 100 µM (inactive) | > 100 µM (inactive) | > 86.5 µM (inactive) | > 100 µM (inactive) | 23.4 µM (inactive) | 34 µM (inactive) | > 100 µM (inactive) |  | > 62.7 µM (inactive) | > 57.8 µM (inactive) | > 100 µM (inactive) |  | > 47 µM (inactive) | > 100 µM (inactive) | 
3 | N#Cc1ccccc1NC(=O)/C(=N\N)C(C(=O)c1ccncc1)C1OC(=O)c2ccccc21 (stereo unspecified) | > 100 µM (inactive) |  | > 100 µM (inactive) | > 100 µM (inactive) | > 100 µM (inactive) | > 100 µM (inactive) | > 100 µM (inactive) | > 100 µM (inactive) | > 100 µM (inactive) | > 100 µM (inactive) | > 100 µM (inactive) | > 100 µM (inactive) |  | > 100 µM (inactive) | > 100 µM (inactive) | > 100 µM (inactive) |  | > 100 µM (inactive) | > 100 µM (inactive) | 
4 | COc1ccc(Nc2nc3c(N)cc(C(F)(F)F)cc3nc2-c2ccccc2)cc1OC | 19.7 µM (inactive) |  | 66.7 µM (inactive) | 22 µM (inactive) | 20.5 µM (inactive) | 27.2 µM (inactive) | 64.7 µM (inactive) | 20.2 µM (inactive) | 18.2 µM (inactive) | 8.63 µM (inactive) | > 100 µM (inactive) | 24.1 µM (inactive) |  | 12.4 µM (inactive) | 55.7 µM (inactive) | 22 µM (inactive) |  | 15.6 µM (inactive) | 21.3 µM (inactive) | 
5 | CCC(/C(=N\Nc1c(Cl)cc(Cl)cc1Cl)c1ccccc1)n1ccnc1C (stereo unspecified) | 11.5 µM (inactive) |  | 5.41 µM (inactive) | 13.8 µM (inactive) | 4.06 µM (inactive) | 14.5 µM (inactive) | 9.04 µM (inactive) | 11.9 µM (inactive) | 16.2 µM (inactive) | 3.82 µM (inactive) | 13 µM (inactive) | 3.66 µM (inactive) |  | 11.7 µM (inactive) | 11.6 µM (inactive) | 13.3 µM (inactive) |  | 4.55 µM (inactive) | 14.3 µM (inactive) | 
6 | O=C(NC(CS)C(=O)O)c1c2ccccc2nc2ccccc12 (stereo unspecified) | 21.5 µM (inactive) |  | 22.2 µM (inactive) | 19.7 µM (inactive) | > 100 µM (inactive) | 13.7 µM (inactive) | > 100 µM (inactive) | > 100 µM (inactive) | > 100 µM (inactive) | 0.16 µM (active) | 61.7 µM (inactive) | 83.9 µM (inactive) | 30.7 µM (inactive) | > 100 µM (inactive) | 4.55 µM (inactive) | 47.8 µM (inactive) | 67.9 µM (inactive) | 31.1 µM (inactive) | > 100 µM (inactive) | 2.81 µM (inactive)
7 | CN(C)CC1CC/C(=C\c2ccc3c(c2)OCO3)C1=O (stereo unspecified) | 23.1 µM (inactive) |  | 2.98 µM (inactive) | 28.2 µM (inactive) | 15.1 µM (inactive) | 8.97 µM (inactive) | 18 µM (inactive) | 7.89 µM (inactive) | 16.3 µM (inactive) | 2.56 µM (inactive) | 2.79 µM (inactive) | 22.1 µM (inactive) | 7.66 µM (inactive) | 6.85 µM (inactive) | 8.49 µM (inactive) | 13 µM (inactive) | 2.79 µM (inactive) | 3.89 µM (inactive) | 11.1 µM (inactive) | 1.93 µM (inactive)
8 | COC(=O)c1cc2ccc(N)nc2[nH]c1=O | > 100 µM (inactive) | > 100 µM (inactive) |  | > 100 µM (inactive) | > 100 µM (inactive) | > 100 µM (inactive) | > 100 µM (inactive) | > 100 µM (inactive) | > 100 µM (inactive) |  |  | > 100 µM (inactive) |  | > 100 µM (inactive) | > 100 µM (inactive) | > 100 µM (inactive) | > 100 µM (inactive) | > 100 µM (inactive) | > 100 µM (inactive) | > 100 µM (inactive)
